Converted amounts (≈) assume the structure as drawn.
Assays:
[1] = system: S. marcescens TH-0447; assay: MIC, agar plate dilution method, S. marcescens TH-0447; assay type: cell-based, Serratia marcescens; conditions: for minimal inhibitory concentration (MIC): S. marcescens TH-0447, AMK-resistant; for MIC: Serratia marcescens, TH0447, S. marcescens TH-0447, AMK-resistant, read-out: minimal inhibitory concentration (MIC)
How it was run: (§1)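 Minimal inhibitory concentration (μg/mL) was determined by agar plate dilution following the Japan Society of Chemotherapy method.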

[2] = system: P. aeruginosa MSC01035; assay: MIC, agar plate dilution method, P. aeruginosa MSC01035; assay type: cell-based, Pseudomonas aeruginosa; conditions: P. aeruginosa MSC01035, ABK-resistant; for MIC: Pseudomonas aeruginosa, read-out: minimal inhibitory concentration (MIC)
How it was run: as §1

[3] = system: K. pneumoniae ATCC BAA-2146; assay: MIC, agar plate dilution method, K. pneumoniae ATCC BAA-2146; assay type: cell-based, Klebsiella pneumoniae; conditions: for minimal inhibitory concentration (MIC): K. pneumoniae ATCC BAA-2146, NDM-producing strain; for MIC: Klebsiella pneumoniae, ATCCBAA2146, K. pneumoniae ATCC BAA-2146, NDM-producing strain, read-out: minimal inhibitory concentration (MIC)
How it was run: as §1

[4] = system: S. marcescens GN6944; assay: MIC, agar plate dilution method, S. marcescens GN6944; assay type: cell-based, Serratia marcescens; conditions: S. marcescens GN6944, GM-resistant; for MIC: Serratia marcescens, read-out: minimal inhibitory concentration (MIC)
How it was run: as §1

[5] = system: P. aeruginosa PAO1/GN315; assay: MIC, agar plate dilution method, P. aeruginosa PAO1/GN315; assay type: cell-based, Pseudomonas aeruginosa; conditions: for minimal inhibitory concentration (MIC): P. aeruginosa PAO1/GN315, AMK-resistant; for MIC: Pseudomonas aeruginosa, read-out: minimal inhibitory concentration (MIC), P. aeruginosa PAO1/GN315, AMK-resistant
How it was run: as §1

[6] = system: S. aureus RN4220/pMS520; assay: MIC, agar plate dilution method, S. aureus RN4220/pMS520; assay type: cell-based, Staphylococcus aureus; conditions: for minimal inhibitory concentration (MIC): S. aureus RN4220/pMS520, MRSA; for MIC: Staphylococcus aureus, MRSA, read-out: minimal inhibitory concentration (MIC), S. aureus RN4220/pMS520, MRSA
How it was run: as §1

[7] = system: P. aeruginosa MSC17707; assay: MIC, agar plate dilution method, P. aeruginosa MSC17707; assay type: cell-based, Pseudomonas aeruginosa; conditions: for minimal inhibitory concentration (MIC): P. aeruginosa MSC17707, AMK-resistant; for MIC: Pseudomonas aeruginosa, MSC17707, P. aeruginosa MSC17707, AMK-resistant, read-out: minimal inhibitory concentration (MIC)
How it was run: as §1

[8] = system: E. faecium ATCC19434; assay: MIC, agar plate dilution method, E. faecium ATCC19434; assay type: cell-based, Enterococcus faecium; conditions: for minimal inhibitory concentration (MIC): E. faecium ATCC19434; for MIC: Enterococcus faecium, ATCC19434, E. faecium ATCC19434, read-out: minimal inhibitory concentration (MIC)
How it was run: as §1

[9] = system: P. aeruginosa PAO1; assay: MIC, agar plate dilution method, P. aeruginosa PAO1; assay type: cell-based, Pseudomonas aeruginosa; conditions: for minimal inhibitory concentration (MIC): P. aeruginosa PAO1, Sensitive bacterium; for MIC: Pseudomonas aeruginosa, PAO1, P. aeruginosa PAO1, Sensitive bacterium, read-out: minimal inhibitory concentration (MIC)
How it was run: as §1

[10] = system: S. aureus MF490; assay: MIC, agar plate dilution method, S. aureus MF490; assay type: cell-based, Staphylococcus aureus; conditions: for minimal inhibitory concentration (MIC): S. aureus MF490, MRSA; for MIC: Staphylococcus aureus, MRSA, read-out: minimal inhibitory concentration (MIC)
How it was run: as §1

[11] = system: A. baumannii ATCC BAA-1710; assay: MIC, agar plate dilution method, A. baumannii ATCC BAA-1710; assay type: cell-based, Acinetobacter baumannii; conditions: for minimal inhibitory concentration (MIC): A. baumannii ATCC BAA-1710, MDRA; for MIC: Acinetobacter baumannii, ATCCBAA1710, A. baumannii ATCC BAA-1710, MDRA, read-out: minimal inhibitory concentration (MIC)
How it was run: as §1

[12] = system: S. aureus RN4220; assay: MIC, agar plate dilution method, S. aureus RN4220; assay type: cell-based, Staphylococcus aureus; conditions: for minimal inhibitory concentration (MIC): S. aureus RN4220, Sensitive bacterium; for MIC: Staphylococcus aureus, RN4220, S. aureus RN4220, Sensitive bacterium, read-out: minimal inhibitory concentration (MIC)
How it was run: as §1

[13] = system: E. coli JM109/pMW218; assay: MIC, agar plate dilution method, E. coli JM109/pMW218; assay type: cell-based, Escherichia coli; conditions: for minimal inhibitory concentration (MIC): E. coli JM109/pMW218, Sensitive bacterium; for MIC: Escherichia coli, JM109/PMW218, E. coli JM109/pMW218, Sensitive bacterium, read-out: minimal inhibitory concentration (MIC)
How it was run: as §1

[14] = system: K. pneumoniae ATCC BAA-1705; assay: MIC, agar plate dilution method, K. pneumoniae ATCC BAA-1705; assay type: cell-based, Klebsiella pneumoniae; conditions: for minimal inhibitory concentration (MIC): K. pneumoniae ATCC BAA-1705, KPC-producing strain; for MIC: Klebsiella pneumoniae, ATCCBAA1705, K. pneumoniae ATCC BAA-1705, KPC-producing strain, read-out: minimal inhibitory concentration (MIC)
How it was run: as §1

SMILES | minimal inhibitory concentration (MIC) [1] [µg/mL] | minimal inhibitory concentration (MIC) [2] [µg/mL] | minimal inhibitory concentration (MIC) [3] [µg/mL] | minimal inhibitory concentration (MIC) [4] [µg/mL] | minimal inhibitory concentration (MIC) [9] [µg/mL] | minimal inhibitory concentration (MIC) [14] [µg/mL] | MIC [1] [µg/mL] | MIC [2] [µg/mL] | MIC [3] [µg/mL] | MIC [4] [µg/mL] | MIC [5] [µg/mL] | MIC [6] [µg/mL] | MIC [7] [µg/mL] | MIC [8] [µg/mL] | MIC [9] [µg/mL] | MIC [10] [µg/mL] | MIC [11] [µg/mL] | MIC [12] [µg/mL] | MIC [13] [µg/mL] | MIC [14] [µg/mL] | further results
CNC1C(O[C@H]2OC(CO)[C@@H](NC(=O)[C@H](C)N)[C@H](O)C2O)O[C@H]2CC(N)[C@@H](O[C@@H]3C(N)C[C@@H](N)C(O)[C@H]3O)OC2C1O (stereo partly drawn) [Compound V1-c, 4″-N-(L-alanyl)apramycin] | 16 (≈ 26.2 µM) | 8 (≈ 13.1 µM) | 2 (≈ 3.28 µM) | 8 (≈ 13.1 µM) | 16 (≈ 26.2 µM) | 4 (≈ 6.55 µM) |  |  |  |  |  |  |  |  |  |  |  |  |  |  | minimal inhibitory concentration (MIC) [5]: 8 µg/mL (≈ 13.1 µM); minimal inhibitory concentration (MIC) [6]: 4 µg/mL (≈ 6.55 µM); minimal inhibitory concentration (MIC) [7]: 8 µg/mL (≈ 13.1 µM); minimal inhibitory concentration (MIC) [8]: 32 µg/mL (≈ 52.4 µM); minimal inhibitory concentration (MIC) [10]: 16 µg/mL (≈ 26.2 µM); minimal inhibitory concentration (MIC) [11]: 8 µg/mL (≈ 13.1 µM); minimal inhibitory concentration (MIC) [12]: 4 µg/mL (≈ 6.55 µM); minimal inhibitory concentration (MIC) [13]: 2 µg/mL (≈ 3.28 µM)
CNC1C(O[C@H]2OC(CO)[C@@H](NC(=O)[C@@H](C)N)[C@H](O)C2O)O[C@H]2CC(N)[C@@H](O[C@@H]3C(N)C[C@@H](N)C(O)[C@H]3O)OC2C1O (stereo partly drawn) [Compound V1-d, 4″-N-(D-alanyl)apramycin] |  |  |  |  |  |  | 16 (≈ 26.2 µM) | 8 (≈ 13.1 µM) | 2 (≈ 3.28 µM) | 8 (≈ 13.1 µM) | 8 (≈ 13.1 µM) | 4 (≈ 6.55 µM) | 8 (≈ 13.1 µM) | 64 (≈ 105 µM) | 4 (≈ 6.55 µM) | 16 (≈ 26.2 µM) | 8 (≈ 13.1 µM) | 4 (≈ 6.55 µM) | 2 (≈ 3.28 µM) | 2 (≈ 3.28 µM) | 
CNC1C(O[C@H]2OC(CO)[C@@H](NC(=O)[C@@H](N)CO)[C@H](O)C2O)O[C@H]2CC(N)[C@@H](O[C@@H]3C(N)C[C@@H](N)C(O)[C@H]3O)OC2C1O (stereo partly drawn) [Compound V1-e, 4″-N-(L-seryl)apramycin] |  |  |  |  |  |  | 16 (≈ 25.5 µM) | 8 (≈ 12.8 µM) | 2 (≈ 3.19 µM) | 8 (≈ 12.8 µM) | 8 (≈ 12.8 µM) | 8 (≈ 12.8 µM) | 8 (≈ 12.8 µM) | 64 (≈ 102 µM) | 8 (≈ 12.8 µM) | 32 (≈ 51.1 µM) | 16 (≈ 25.5 µM) | 8 (≈ 12.8 µM) | 2 (≈ 3.19 µM) | 4 (≈ 6.38 µM) | 
CN[C@@H]1[C@@H](O[C@H]2O[C@H](CO)[C@@H](NC(=O)[C@H](N)CO)[C@H](O)[C@H]2O)O[C@H]2C[C@@H](N)[C@@H](O[C@H]3[C@H](O)[C@@H](O)[C@H](N)C[C@@H]3N)O[C@@H]2[C@@H]1O [Compound V1-f, 4″-N-(D-seryl)apramycin] | 16 (≈ 25.5 µM) | 8 (≈ 12.8 µM) | 2 (≈ 3.19 µM) | 16 (≈ 25.5 µM) | 4 (≈ 6.38 µM) | 4 (≈ 6.38 µM) |  |  |  |  |  |  |  |  |  |  |  |  |  |  | minimal inhibitory concentration (MIC) [5]: 8 µg/mL (≈ 12.8 µM); minimal inhibitory concentration (MIC) [6]: 8 µg/mL (≈ 12.8 µM); minimal inhibitory concentration (MIC) [7]: 8 µg/mL (≈ 12.8 µM); minimal inhibitory concentration (MIC) [8]: 64 µg/mL (≈ 102 µM); minimal inhibitory concentration (MIC) [10]: 32 µg/mL (≈ 51.1 µM); minimal inhibitory concentration (MIC) [11]: 8 µg/mL (≈ 12.8 µM); minimal inhibitory concentration (MIC) [12]: 8 µg/mL (≈ 12.8 µM); minimal inhibitory concentration (MIC) [13]: 2 µg/mL (≈ 3.19 µM)
CNC1C(O[C@H]2OC(CO)[C@@H](NC(=O)CCN)[C@H](O)C2O)O[C@H]2CC(N)[C@@H](O[C@@H]3C(N)C[C@@H](N)C(O)[C@H]3O)OC2C1O (stereo partly drawn) [Compound V1-g, 4″-N-(β-alanyl)apramycin] |  |  |  |  |  |  | 16 (≈ 26.2 µM) | 4 (≈ 6.55 µM) | 1 (≈ 1.64 µM) | 8 (≈ 13.1 µM) | 4 (≈ 6.55 µM) | 2 (≈ 3.28 µM) | 4 (≈ 6.55 µM) | 32 (≈ 52.4 µM) | 4 (≈ 6.55 µM) | 8 (≈ 13.1 µM) | 8 (≈ 13.1 µM) | 4 (≈ 6.55 µM) | 1 (≈ 1.64 µM) | 2 (≈ 3.28 µM) | 
CNC1C(O[C@H]2OC(CO)[C@@H](NC(=O)[C@@H](O)CN)[C@H](O)C2O)O[C@H]2CC(N)[C@@H](O[C@@H]3C(N)C[C@@H](N)C(O)[C@H]3O)OC2C1O (stereo partly drawn) [Compound V1-h, 4″-N-(L-isoseryl)apramycin] |  |  |  |  |  |  | 16 (≈ 25.5 µM) | 4 (≈ 6.38 µM) | 2 (≈ 3.19 µM) | 8 (≈ 12.8 µM) | 8 (≈ 12.8 µM) | 4 (≈ 6.38 µM) | 4 (≈ 6.38 µM) | 32 (≈ 51.1 µM) | 16 (≈ 25.5 µM) | 8 (≈ 12.8 µM) | 8 (≈ 12.8 µM) | 4 (≈ 6.38 µM) | 2 (≈ 3.19 µM) | 2 (≈ 3.19 µM) | 
CNCC(=O)N[C@@H]1C(CO)O[C@H](OC2O[C@H]3CC(N)[C@@H](O[C@@H]4C(N)C[C@@H](N)C(O)[C@H]4O)OC3C(O)C2NC)C(O)[C@H]1O (stereo partly drawn) [Compound V1-j, 5-epi-4″-N-sarcosylapramycin] | 8 (≈ 13.1 µM) | 4 (≈ 6.55 µM) | 1 (≈ 1.64 µM) | 8 (≈ 13.1 µM) | 2 (≈ 3.28 µM) | 1 (≈ 1.64 µM) |  |  |  |  |  |  |  |  |  |  |  |  |  |  | minimal inhibitory concentration (MIC) [5]: 4 µg/mL (≈ 6.55 µM); minimal inhibitory concentration (MIC) [6]: 2 µg/mL (≈ 3.28 µM); minimal inhibitory concentration (MIC) [7]: 2 µg/mL (≈ 3.28 µM); minimal inhibitory concentration (MIC) [8]: 8 µg/mL (≈ 13.1 µM); minimal inhibitory concentration (MIC) [10]: 4 µg/mL (≈ 6.55 µM); minimal inhibitory concentration (MIC) [11]: 8 µg/mL (≈ 13.1 µM); minimal inhibitory concentration (MIC) [12]: 2 µg/mL (≈ 3.28 µM); minimal inhibitory concentration (MIC) [13]: 1 µg/mL (≈ 1.64 µM)
CNC1C(O[C@H]2OC(CO)[C@@H](NC(=O)[C@H](C)N)[C@H](O)C2O)O[C@H]2CC(N)[C@@H](O[C@@H]3C(N)C[C@@H](N)C(O)[C@H]3O)OC2C1O (stereo partly drawn) [Compound V1-k, 4″-N-(L-alanyl)-5-epiapramycin] |  |  |  |  | 4 (≈ 6.55 µM) | 1 (≈ 1.64 µM) | 16 (≈ 26.2 µM) | 8 (≈ 13.1 µM) | 1 (≈ 1.64 µM) | 8 (≈ 13.1 µM) | 4 (≈ 6.55 µM) | 4 (≈ 6.55 µM) | 4 (≈ 6.55 µM) | 16 (≈ 26.2 µM) |  | 8 (≈ 13.1 µM) | 8 (≈ 13.1 µM) | 4 (≈ 6.55 µM) | 1 (≈ 1.64 µM) |  | 

— patent US11135234B2, “Effective aminoglycoside antibiotic for multidrug-resistant bacteria” (MICROBIAL CHEMISTRY RESEARCH FOUNDATION, priority 2015, dated 2021)
